Reference: patent US8686028B2, “Substituted benzfurochromenes and related compounds for the prevention and treatment of bone related disorders” (Council of Scientific & Industrial Research, priority 2008, dated 2014)

Experiments:
[1] = system: ovariectomized immature female rats; experiment: Estrogenicity, uterine fresh weight in ovariectomized immature female rats; type: in vivo, rat; conditions: three consecutive days, vehicle 16.46
Procedure: (§1) 21 day old immature female rats (25-30 grams) were ovariectomized and given 7 days post-operative rest. Thereafter they were treated orally with the test agent (10 mg/Kg body weight) or with vehicle or Ethynyl estradiol, the reference standard for three consecutive days. For anti-estrogenicity, other than the test chemical, ethynyl estradiol (0.01 mg/kg) was given at 15 minutes interval before the test chemical. Autopsy was done 24 h after last treatment and uterine fresh weight was taken.

[2] = system: ovariectomized immature female rats; experiment: Anti-estrogenicity, uterine fresh weight with ethynyl estradiol co-treatment; type: in vivo, rat; conditions: 10 mg/Kg oral plus ethynyl estradiol 0.01 mg/kg
Procedure: as §1

[3] = system: Calvarial osteoblast cells; experiment: MTT cell proliferation assay; type: cell-based, rat; conditions: 10^−10 M to 10^−6M, 24 hrs
Procedure: (§2) Neonatal rat calvarial cell cultures are prepared as described previously (Endocrinology 145:3451) using slight modification. Briefly, for primary osteoblast cell cultures, frontal and parietal bones from Sprague-Dawley rat neonates (1-3 day old) are digested in 0.1% collagenase/0.1% dispase in α-MEM to obtain 5 sequential digests. The second through fifth digests are combined and grown to confluence at 37° C. and 5% CO2 in air in α-MEM, supplemented with 10% fetal bovine serum (FBS), 2 mM glutamine, 100 U/ml penicillin-streptomycin, Non-essential amino acid solution and sodium pyruvate.
MTT [3-(4,5-dimethylthiazol-2-yl)-2,5-diphenyltetrazolium bromide] assay, first described by Mosmann in 1983, is based on the ability of a mitochondrial dehydrogenase enzyme from viable cells to cleave the tetrazolium rings of the pale yellow MTT and form a dark blue formazan crystals which is largely impermeable to cell membranes, thus resulting in its accumulation within healthy cells. Solubilisation of the cells by the addition of a detergent results in the liberation of the crystals which are solubilized. The number of surviving cells is directly proportional to the level of the formazan product created. The color can then be quantified using a simple colorimetric assay. The results can be read on a multiwell scanning spectrophotometer (Mosmann T. Rapid colorimetric assay for cellular growth and survival: application to proliferation and cytotoxicity assays. J Immunol Methods. 1983 Dec. 16; 65(1-2):55-63).
Calvarial osteoblast cells plated at a density of 2.0×10^3 cells/200 ul in 96 wells plates. Cells were grown to 60% confluency and then treated with following compounds S006-1709, S006-1710, 5006-1711, S006-1713 and; S006-1714 at concentrations ranging from 10^−10 M to 10^−6M for 24 hrs. After treatment media was removed and 10 mM MTT was added solution in phenol red free DMEM media. After an incubation of 4 hrs the MTT solution was removed. Blue colored crystals were formed which were dissolved in DMSO and absorbance was read on ELISA plate reader at 570 nm wavelength.

[4] = Pharmacokinetic studies in Sprague Dawley rats; type: in vivo; conditions: rat, plasma, SD rats, oral dose of 5 mg/kg
Procedure: In-vivo pharmacokinetic parameters were generated in Sprague Dawley rats at a dose of 5 mg/kg by oral route of administration. The blood samples were drawn at 0.25, 0.5, 0.75, 1.0, 1.5, 2.0, 2.5, 4.0, 6, 8, 10, 12, 18, 24, 28, 36 and 48 hours, processed and analyzed by Liquid Chromatography-Mass Spectrometry (LC-MS). Plasma concentration at different time points were plotted to give Plasma Concentration Time Profile and the data was fitted non-compartmentally using Win NonLin 5.1 version software and the estimates of pharmacokinetic parameters were derived with SD mean values.

[5] = system: Immature 21 d old female SD rat; experiment: In vivo efficacy, BMD in immature female SD rats; conditions: 10 mg/kg daily, one month; vehicle = 100
Procedure: Immature 21 d old female SD rat model was chosen, animals were randomized into four groups and treated with a daily dose of test agent or vehicle for one month and autopsied on day 31.
[…], the animals were shifted to metabolic cage for acclaimatization for 24 h with food and water. Post acclaimatization animals were further left in metabolic cage for 24 h with water but no food. Blood and urine samples were collected after 24 h. Various biochemical parameters like serum calcium, serum phosphorus, serum osteocalcin, serum alkaline phosphatase (ALP) were evaluated. The animals were autopsied on day 31 and lumbar vertebrae, femur and tibia bones were isolated, cleaned and fixed in 70% ethanol in saline and stored at 4° C. until BMD measurement. Initial and final body weight and uterine weight at autopsy were recorded. BMD measurements of region of interest (lumbar: global, L1-L4; femur: global, neck and mid-shaft; tibia: global, proximal and tibio-fibula junction point) was performed using a bone densitometer (Model 4500 Elite, Hologic) fitted with commercially available software (QDR 4500 ACCLAIM series) for a fan-beam DXA system that permits determination of bone densitometry and measurement of body composition in small animals in vivo.

[6] = system: Calvarial osteoblasts; experiment: Alkaline phosphatase (ALP) activity for osteoblast differentiation, calvarial osteoblasts; type: cell-based, rat; conditions: for stimulation of ALP activity: osteoblasts, concentrations not given
Procedure: as §2
70 to 80% confluent Calvarial osteoblasts were treated with μM S006-1709 for 48 h in the presence of ascorbate and glycerophosphate. At the end of incubation period, total ALP activity was measured with a method using p-nitrophenylphosphate (PNPP) as substrate. The reaction mixture contained diethanolamine buffer (1 mol/L, pH 9.8), 0.5 mmol/L MgCl2.6H2O, and 10 mmol/L PNPP. ALP activity was measured by taking OD of the amount of colored product formed by the dephosphorylation of PNPP at 405 nm. […] In addition, the effect of S006-1709 on mineralization of calvarial osteoblasts was studied.
We then studied its effect in osteoblast differentiation in both calvarial and bone marrow osteoblasts. Confluent calvarial osteoblasts (70 to 80%) were treated with S006-1710 for 48 h in the presence of ascorbate and glycerophosphate at concentrations ranging from 10^−16M to 10^−6M. At the end of incubation period, total ALP activity was measured with the same method used previously using p-nitrophenylphosphate (PNPP) as substrate.
70 to 80% confluent Calvarial osteoblasts were treated with S007-1351 for 48 h in the presence of ascorbate and glycerophosphate. At the end of incubation period, total ALP activity was measured with a method using p-nitrophenylphosphate (PNPP) as substrate. The reaction mixture contained diethanolamine buffer (1 mol/L, pH 9.8), 0.5 mmol/L MgCl2.6H2O, and 10 mmol/L PNPP. ALP activity was measured by taking OD of the amount of colored product formed by the dephosphorylation of PNPP at 405 nm.
70 to 80% confluent calvarial osteoblasts were treated with S007-1352 for 48 h in the presence of ascorbate and glycerophosphate at concentrations ranging from 10^−12M to 10^−6 M. At the end of incubation period, total ALP activity was measured with the same method used previously using p-nitrophenylphosphate (PNPP) as substrate.

[7] = system: 3T3-L1 cells; experiment: Anti-adipogenic effect (Oil Red O) in 3T3-L1 cells; type: cell-based, mouse; conditions: 3T3L1, both concentrations (10^−10 M and 10^−12M)
Procedure: The best characterized model of adipogenesis in vitro is the 3T3-L1 cell line, a substrain of Swiss 3T3 mouse cell line. 3T3-L1 cells propagated under normal conditions have a fibroblastic phenotype. However, when treated with a combination of dexamethasone, isobutylmethylxanthine (IBMX or MIX) and insulin, 3T3-L1 cells adopt a rounded phenotype and within 5 days begin to accumulate lipids intracellularly in the form of lipid droplets.
3T3-L1 cells were plated in 48-well plates 40,000 cells/well. The cells were incubated in DMEM containing fetal calf serum for 2 days until the cells become confluent. The cells were then incubated with Adipogenesis initiation media which contains DMEM with 10% FCS, IBMX and dexamethasone for 48 hrs at 37° C., 5% CO2. After two days the media was replaced with Adipogenesis Progression media which contains DMEM/10% FCS and insulin for 48 hrs at 37° C., 5% CO2, Media was again changed gently to Adipogenesis maintenance media for 48 hrs at 37° C., 5% CO2. At the end of eight days of experiment the cells were fixed and then stained with Oil Red O which stains lipid droplets. The dye was extracted and extracted dye was transferred to a 96-well plate and absorbance of extracted Oil Red O was measured in a plate reader at 490 nm.
Compounds S006-1709, S007-1351-53, S007-1495 and S007-1500 were tested in vitro in 3T3L1 cell line at two concentrations 10^−10 M and 10^−12M. FIG. 8A depicts the adipocytes formed at the end of the 8 day experiment. The fixed cells were stained with Oil Red O. The dye was then extracted and quantified.

Oc1ccc2c(c1)OCC1c3ccccc3OC21 (stereo not drawn) [Compound S006-1709, 6a,11a-Dihydro-6H-benzo[4,5]furo[3,2-c]chromen-3-ol]
Estrogenic Activity (uterine fresh weight) ([1]; 10 mg/Kg oral): 15.8
Anti-Estrogenic Activity (uterine fresh weight) [2]: 96.86
Anti-Estrogenic Activity, % (second line of cell) ([2]; relative to ethynyl estradiol): −1.5%^
effect on osteoblast proliferation (MTT) [3]: no effect
AUC ([4]; read-out: Area under curve (AUC)): 32.1 ± 12 ng·h/mL
Cmax ([4]; read-out: Maximum plasma concentration (Cmax)): 17.5 ± 1.76 ng/mL
half-life ([4]; read-out: elimination half life (T1/2) (converted)): 2.5 h
MRT ([4]; read-out: mean residence time (MRT)): 3.5 h
Tmax ([4]; read-out: time to achieve maximum plasma concentration (tmax) (converted)): 0.25 h
Change in BMD, Femur Global [5]: 138.75
Change in BMD, Femur Neck [5]: 141
Change in BMD, Femur Shaft [5]: 167
Change in BMD, Lumber Vertebra Global [5]: 120
Change in BMD, Lumber Vertebra LV1 [5]: 126
Change in BMD, Lumber Vertebra LV2 [5]: 124
Change in BMD, Lumber Vertebra LV3 [5]: 90.3
Change in BMD, Lumber Vertebra LV4 [5]: 125
Change in BMD, Tibia Global [5]: 133
Change in BMD, Tibia Head [5]: 115
Change in BMD, Tibia TFSP [5]: 124
melting point: 148 to 152 °C

COc1ccc(-c2coc3cc(O)ccc3c2=O)c(OC)c1 [Compound S006-1713, 3-(2,4-Dimethoxy-phenyl)-7-hydroxy-chromen-4-one]
effect on osteoblast proliferation (MTT) [3]: did not have any effect
stimulation of ALP activity [6]: non-significant

COc1ccc(-c2coc3cc(O)ccc3c2=O)c(O)c1 [Compound S006-1714, 7-Hydroxy-3-(2-hydroxy-4-methoxy-phenyl)-chromen-4-one]
effect on osteoblast proliferation (MTT) [3]: did not have any effect
melting point: 210 to 212 °C
stimulation of ALP activity [6]: non-significant

O=c1c(-c2ccccc2O)coc2c(O)c(O)ccc12 [Compound S007-1351, 7,8-Dihydroxy-3-(2-hydroxy-phenyl)-chromen-4-one]
melting point: 240 to 242 °C
osteoblast ALP activity vs vehicle control ([6]; calvarial osteoblasts, 48 h, 10^−12M to 10^−6M): significant increase
effect on adipogenesis [7]: inducers of adipogenesis

O=c1c(-c2ccccc2O)coc2cc(O)c(Cl)cc12 [Compound S007-1354, 6-Chloro-7-hydroxy-3-(2-hydroxy-phenyl)-chromen-4-one]
melting point: > 250 °C
stimulation of ALP activity [6]: non-significant

COc1ccccc1-c1coc2cc(O)c(Cl)cc2c1=O [Compound S007-1355, 6-Chloro-7-hydroxy-3-(2-methoxy-phenyl)-chromen-4-one]
melting point: 228 to 230 °C
stimulation of ALP activity [6]: non-significant

Cc1c(O)ccc2c(=O)c(-c3ccccc3O)coc12 [Compound S007-1498, 7-Hydroxy-3-(2-hydroxy-phenyl)-8-methyl-chromen-4-one]
melting point: 196 to 198 °C
stimulation of ALP activity [6]: non-significant

Cc1c(O)ccc2c1OCC1c3ccccc3OC21 (stereo not drawn) [Compound S007-1499, 4-Methyl-6a,11a-dihydro-6H-benzo[4,5]furo[3,2-c]chromen-3-ol]
melting point: 160 to 162 °C
stimulation of ALP activity [6]: non-significant

Cc1c(OCC#N)ccc2c1OCC1c3ccccc3OC21 (stereo not drawn) [Compound S007-1501, (4-Methyl-6a,11a-dihydro-6H-benzo[4,5]furo[3,2-e]chromen-3-yloxy)-acetonitrile]
stimulation of ALP activity [6]: non-significant

CC(C)Oc1ccc2c(c1)OCC1c3ccccc3OC21 (stereo not drawn) [Compound S-008-0398, 3-Isopropoxy-6a,11a-dihydro-6H-benzofuro[3,2-c]chromene]
melting point: 96 to 98 °C

c1ccc2c(c1)OC1c3ccc(OCCN4CCCCC4)cc3OCC21 (stereo not drawn) [Compound S-008-0399, 1-(2-(6a,11a-Dihydro-6H-benzofuro[3,2-c]chromen-3-yloxy)ethyl)piperidine]
melting point: 202 to 204 °C

C=CCOc1ccc2c(c1)OCC1c3ccccc3OC21 (stereo not drawn) [Compound S-008-0625, 3-(Allyloxy)-6a,11a-dihydro-6H-benzofuro[3,2-c]chromene]
melting point: 72 to 74 °C

C#C[C@]1(O)CC[C@H]2[C@@H]3CCc4cc(O)ccc4[C@H]3CC[C@@]21C [Ethnyl Estradiol, Ethynyl estradiol, reference compound]
Estrogenic Activity (uterine fresh weight) ([1]; reference standard, 0.01 mg/Kg): 98.3
